In publication PMC10746708, “A small molecule iCDM-34 identified by in silico screening suppresses HBV DNA through activation of aryl hydrocarbon receptor” (Cell Death Discovery, 2023):

Legend:
HBV genotype C = experiment: Anti-HBV activity in HBV-infected PXB cells (HBV DNA by qPCR); type: cell-based; conditions: Hepatitis B virus, 168 h; HBV genotype C-infected PXB cells, 0.03–100 µM for 7 days, qPCR; read-out: half maximal inhibitory concentration, cellular HBV DNA
Description: PXB cells (primary cultured human hepatocytes) were purchased from PhoenixBio (Higashi-Hiroshima, Japan) and cultured on collagen type I-coated 96- or 24-well plates in hepatocyte clonal growth medium at 37 °C and 5 % CO2 as previously described. RealTime-Glo MT Cell Viability Assay (Promega) and XTT assay were performed according to a previously established protocol.
PXB cells were plated on 96-well plate and infected with three genome equivalents per cell of HBV C_AT [33], and the medium was changed every 3 or 4 days. […] After treatment with these compounds, cellular DNA, medium DNA, and total RNA were automatically purified as per our previously established protocol. RNA purification of total RNA from cultured cells in the 24-well plate was performed using the RNeasy Mini Kit (Qiagen, Germantown, MD, USA) according to the manufacturer’s instructions.
HBV DNA copy numbers were determined using TaqMan Gene Expression Master Mix (Thermo Fisher Scientific) or Probe qPCR Mix (Takara Bio), specific primers, and probes in a qPCR system (Light Cycler 96 System, Roche, Basel, Switzerland or CFX96 Touch Real-Time PCR Detection System, Bio-Rad Laboratories, Hercules, CA, USA). The specific primers and probe used for detection of HBV DNA were as follows: forward primer: 5′-[…]-3′, reverse primer: 5′-[…]-3′, and probe: 5′-[FAM] […][TAM]-3′.

[1] = Liver microsomal stability, human; type: in vitro ADME; conditions: human liver microsomes
Description: (§1) Liver microsome stability studies (human, mouse, and rat) were performed at Sumika Chemical Analysis Service (Osaka, Japan) by following an established procedure. A mixture of 1 μM of substrate, 0.5 mg protein/mL of microsomes, and […] β-NADPH was incubated for 30 or 60 min and % remaining substrate was quantitatively measured by LC-MS/MS.

[2] = Liver microsomal stability, rat; type: in vitro ADME; conditions: rat liver microsomes
Description: as §1

[3] = Liver microsomal stability, mouse; type: in vitro ADME; conditions: mouse liver microsomes
Description: as §1

JAK/STAT signaling = experiment: Western blotting of phospho-STAT1, STAT2, STAT3 in HCV replicon cells; type: cell-based, human; conditions: 30 μM, 24 h
Description: HCV replicon cells were treated with 30 μM CDM-3008, iCDM-17, and iCDM-34 for 1 day. The cells were lyzed with 1 x SDS sample buffer containing PhosStop, Complete EDTA free, and 1 mM EDTA. After sonication for 30 s, the lysates were centrifuged at 12,000g for 10 min at 4 °C, and then the supernatants were collected. After reducing the 20 μg of supernatants with 50 mM DTT at 98 °C for 2 min, the samples were separated by SDS-PAGE. STAT1, STAT2, STAT3, pSTAT1, pSTAT2, and pSTAT3 were detected by Western blotting using anti-STAT1 (9175, 1/1000), STAT2 (72604, 1/1000), STAT3 (12640, 1/1000), pSTAT1 (Y701) (7649, 1/1000), pSTAT2 (Y690) (88410, 1/1000), and pSTAT3 (Y705) (9145, 1/1000) antibodies (Cell signaling technology, Massachusetts, USA).

phospho-SAMHD1 = experiment: Western blotting of phospho-SAMHD1 in HepG2-NTCP-C4 cells; type: cell-based, human; conditions: 30 μM, 1 day
Description: HepG2-NTCP-C4 cells were treated with 30 μM iCDM-17 and iCDM-34 for 1 day. The cells were lyzed with 20 mM TrisHCl pH 7.5 containing 100 mM NaCl, 10 mM EDTA, 1% TritonX-100, 1% Sodium deoxycholate, PhosSTOP (Roche), Complete EDTA free. The lysates were sonicated 30 s and mixed for 1 h with rotation at 4 °C. The lysates were centrifuged at 15,000 rpm for 10 min at 4 °C. The supernatants were analyzed by Western blotting using anti-phospho-SAMHD1 (Thr592) (Cell signaling technology, 89930, 1/1000), anti-SAMHD1 (Cell signaling technology, 49158, 1/1000), and β−actin (Santa Cruz, 1/1000).

[4] = 1 μM substrate, 0.5 mg protein/mL, 30 min
[5] = 1 μM substrate, 0.5 mg protein/mL, 60 min

## COc1ccc(CNC(=O)c2nc(-c3ccc4c(c3)OCO4)no2)cc1OC [iCDM-17]
HBV genotype C
  IC50: 56.6 µM
[1]
  half-life at 1 μM: 48.6 min
[1]; [4]
  remaining at 0.5 h, 1 μM: 61.4 ± 0.9%
[1]; [5]
  remaining at 1 h, 1 μM: 42.3 ± 0.1%
[2]
  half-life at 1 μM: 26.7 min
[2]; [4]
  remaining at 0.5 h, 1 μM: 32 ± 0.2%
[2]; [5]
  remaining at 1 h, 1 μM: 11.6 ± 0.2%
[3]
  half-life at 1 μM: 34.8 min
[3]; [4]
  remaining at 0.5 h, 1 μM: 45.8 ± 0.6%
[3]; [5]
  remaining at 1 h, 1 μM: 22.6%
JAK/STAT signaling
  phosphorylation of STAT1, STAT2, and STAT3: not induced
phospho-SAMHD1
  phospho-SAMHD1 levels: lower than pre-treatment levels
